Patent US5830909A (American Cyanamid Company, priority 1996, dated 1998)
Counter-ions that a name gives are not always drawn. Like-named read-outs stand apart in the source and are kept apart here. Blank lines part the entries; values can stand above or below the compound they belong to.

How the values were obtained:
AII receptor = biological target: T1, AII receptor (Rattus norvegicus, UniProt P25095); experiment: Displacement of 125I[Sar,Ile]AII binding in rat epididymal fat cell membranes; settings: rat epididymal fat cell membranes (Table 8)
T1 construct: adipose tissue from the epididymal and retroperitoneal depots is quickly excised; from tissue; host or cells: membranes of collagenase-isolated adipocytes from epididymal and retroperitoneal fat of male Sprague-Dawley rats
T1 sequence (P25095 1-359): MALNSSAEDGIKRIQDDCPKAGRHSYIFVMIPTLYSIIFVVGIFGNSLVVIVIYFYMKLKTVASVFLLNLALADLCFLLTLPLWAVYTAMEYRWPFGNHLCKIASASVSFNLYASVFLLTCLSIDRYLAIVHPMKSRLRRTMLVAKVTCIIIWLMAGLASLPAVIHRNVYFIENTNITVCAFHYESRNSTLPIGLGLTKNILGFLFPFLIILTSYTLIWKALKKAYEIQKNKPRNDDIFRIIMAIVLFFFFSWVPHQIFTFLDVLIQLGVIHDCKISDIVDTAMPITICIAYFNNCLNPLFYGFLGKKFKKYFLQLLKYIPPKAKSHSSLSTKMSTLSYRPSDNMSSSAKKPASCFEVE
Source text: The experimental design involves determining the binding characteristics of adipocyte membranes harvested from two different anatomic sites at three different ages. Male Sprague-Dawley rats (Charles River Laboratories, Wilmington, Mass.) are used at 40, 70 and 100 days of age. Rats are killed by carbon dioxide inhalation on the morning of the experiment, and adipose tissue from the epididymal and retroperitoneal depots is quickly excised and placed in cold saline. The spermatic artery and vein are removed from the epididymal fat, and brown fat deposits are dissected away from the retroperitoneal depot. The adipose tissue is weighed, minced into small pieces, and approximately 10 g each transferred to a flask containing 25 ml of Krebs-Ringer-bicarbonate buffer (KRB), 6 mM glucose and 50 mg of collagenase, pH 7.4. […] Intact adipocytes dissociated from the tissue pass freely into waiting tubes, while the undigested tissue is trapped on the screen. The tubes containing the adipocytes are washed an additional 4× with 20 ml each of cold Tris buffer (10 mM Tris HCl, pH 8.0) by first allowing the adipocytes to separate from the digestion medium by flotation, removing the infranatant through polyethylene tubing attached to a syringe, resuspending the cells in the Tris buffer, and repeating this procedure. Adipocyte membranes used for binding studies are prepared as follows. […] Following centrifugation, the fat cake and supernatant are carefully removed, and the pellet resuspended in 1 ml of Tris buffer. Protein content of the high speed pellet is determined, the resuspended protein is either assayed immediately or stored at -75° before binding assays are performed. […] The assay is initiated by the addition of the membrane protein, followed by incubation at 22° C. for 30 minutes in a slowly shaking water bath. Separation of bound from free radioactivity is achieved using any appropriate filtration apparatus. We use either a Millipore or Brandel model harvesting apparatus containing a Durapore or Whatman GF/B filter, followed by 6 additional rinses with 5 ml each of cold saline. The filters are placed in tubes, and radioactivity measured in a gamma scintillation counter programmed to correct for the half-life of the isotope. Using this experimental protocol, both the affinity (KD) and number of binding sites (Bmax) for angiotensin II on the adipocyte membrane can be calculated. The relative affinities of different anatomically distinct adipocyte membranes for a variety of peptide and nonpeptide antagonists can also be determined. […] Concentration ranges can be altered dependent upon the affinity of the particular antagonist for the fat cell membrane receptor.

adipocyte AII receptor = experiment: Epididymal adipocyte AII receptor binding (Bmax) after two weeks oral treatment; format: in vivo, rat; settings: 4 rats/group, oral once daily for 2 weeks
Protocol: (§1) Body weight and food intake are monitored daily. At the end of two weeks, the rats are sacrificed and tissues are weighed. Adipocyte membranes are prepared by collagenase digestion, homogenization and centrfugation.
Binding is initiated by suspending the adipocyte membranes in 0.25% BSA buffer (bovine serum albumin, 50 mM Tris HCl, 5 mM MgCl2,pH 7.4) to a final concentration of 5 ug protein/10 ul buffer. […] The filters are placed in tubes, and radioactivity measured in a gamma scintillation counter programmed to correct for the half-life of the isotope. Using this experimental protocol, both the affinity (KD) and number of binding sites (Bmax) for angiotensin II on the adipocyte membrane can be calculated.

epididymal adipocytes = experiment: Epididymal adipocyte cell volume after two weeks oral treatment; format: in vivo, rat; settings: 4 rats/group, oral once daily for 2 weeks
Protocol: as §1, with “centrfugation. […] Of the organs sampled, the combined largest relative and quantitative change in weight was in the adipose tissue.” for “centrfugation.”

[1] = format: in vivo, rat; settings: 15 mg/kg once a day by gavage, two weeks
Protocol: as §1, with “centrfugation. […] Of the organs sampled, the combined largest relative and quantitative change in weight was in the adipose tissue.” for “centrfugation.”

[2] = Epididymal IC50 for displacement of 125I[Sar,Ile]AII binding
[3] = read-out: Epididymal IC50 for displacement of 125I[Sar,Ile]AII binding

Compound: CCCCc1nc2ccc(C(O)C3CCCS3(=O)=O)cc2c(=O)n1Cc1ccc(-c2ccccc2-c2nn[nH]n2)cc1 (single isomer, unassigned) [2-butyl-6-[hydroxy(tetrahydro-2-thienyl)methyl]-3-[[2'-(1H-tetrazol-5-yl)[1,1'-biphenyl]-4-yl]methyl]-4(3H)-quinazolinone S,S-dioxide isomer 1]
IC50 (AII receptor; [2]): 1.68 nM

Compound: CCCCc1nc2ccc(COc3ccccc3)cc2c(=O)n1Cc1ccc(-c2ccccc2-c2nnn[nH]2)cc1 [2-butyl-6-(phenoxymethyl)-3-[[2'-(1H-tetrazol-5-yl)[1,1'-biphenyl]-4-yl]methyl]-4(3H)-quinazolinone]
IC50 (AII receptor; [2]): 163 nM

Compound: CCCCc1nc(Cl)c(CO)n1Cc1ccc(-c2ccccc2-c2nnn[nH]2)cc1 [2-n-butyl-4-chloro-5-hydroxymethyl-1-[(2'-(1H-tetrazol-5-yl)biphenyl-4-yl)methyl]imidazole, reference compound]
Bmax, epididymal adipocyte AII receptor binding (adipocyte AII receptor): 24.7 fmole/mg protein | Adipocyte Cell Volume (epididymal adipocytes): 163 p1 | Avg. Daily Food Intake, % Change From Control [1]: -8% | Avg. Weight Gain, % Change From Control [1]: -38% | Epididymal Fat Weight, % Change From Control [1]: -21% | Final Body Weight, % Change From Control [1]: -5% | Retroperitoneal Fat Weight, % Change From Control [1]: -16% | Avg. Daily Food Intake ([1]; n = 6): 30.1 g | Avg. Weight Gain ([1]; n = 6): 35 g | Epididymal Fat Weight ([1]; n = 6): 4.10 g | Final Body Weight ([1]; n = 6): 431 g | Retroperitoneal Fat Weight ([1]; n = 6): 4.10 g

Compound: CCCCc1nc2ccc(C3CC(c4ccc(C)cc4)=NO3)cc2c(=O)n1Cc1ccc(-c2ccccc2-c2nnn[nH]2)cc1 (centres unmarked) [2-butyl-6-[4,5-dihydro-3-(4-methylphenyl)-5-isoxazolyl]-3-[[2'-(1H-tetrazol-5-yl)[1,1'-biphenyl]-4-yl]methyl]-4(3H)-quinazolinone]
IC50 (AII receptor; [2]): 126 nM

Compound: CCCCc1nc2ccc(COc3ccccn3)cc2c(=O)n1Cc1ccc(-c2ccccc2-c2nn[nH]n2)cc1 [2-butyl-6-[(2-pyridinyloxy)methyl]-3-[[2'-(1H-tetrazol-5-yl)[1,1'-biphenyl]-4-yl]methyl]-4(3H)-quinazolinone hydrochloride]
IC50 (AII receptor; [2]): 17.2 nM

Compound: CCCCc1nc2ccc(C(C)(O)C3CCN(C)C3=O)cc2c(=O)n1Cc1ccc(-c2ccccc2-c2nn[nH]n2)cc1 (single isomer, unassigned) [2-butyl-6-[1-hydroxy-1-(1-methyl-2-oxo-3-pyrrolidinyl)ethyl]-3-[[2'-(1H-tetrazol-5-yl)[1,1'-biphenyl]-4-yl]methyl]-4(3H)-quinazolinone isomer 1]
IC50 (AII receptor; [2]): 7.9 nM

Compound: 2-butyl-5,6,7,8-tetrahydro-6-(2-hydroxy-2-methyl-1-oxopropyl)-3-[[2'-(1H-tetrazol-5-yl)[1,1'-biphenyl]-4-yl]methyl]-4(3H)-quinazolinone
IC50 (AII receptor; [3]): 1.36 nM

Compound: CCCCc1nc2ccc(C3=NN4CCCCC4C3)cc2c(=O)n1Cc1ccc(-c2ccccc2-c2nn[nH]n2)cc1 (centres unmarked) [2-butyl-6-(3,3a,4,5,6,7-hexahydropyrazolo[1,5-a]pyridin-2-yl)-3-[[2'-(1H-tetrazol-5-yl)[1,1'-biphenyl]-4-yl]methyl]-4(3H)-quinazolinone]
IC50 (AII receptor; [2]): 86.7 nM

Compound: 2-butyl-3,5,7,8-tetrahydro-3-[[2'-(1H-tetrazol-5-yl)[1,1'-biphenyl]-4-yl]methyl]-pyrido[4,3-d]pyrimidin-6(4H)-carboxylic acid phenylmethyl ester
IC50 (AII receptor; [3]): 17.9 nM

Second part, the compound after the results:

IC50 (AII receptor; [2]): 5.63 nM
Compound: CCCc1nc(C)n2[nH]c(=O)nc2c1Cc1ccc(-c2ccccc2-c2nnn[nH]2)cc1 [5-methyl-7-propyl-8-[(2'-(1H-tetrazol-5-yl)biphenyl-4-yl)methyl]-1,2,4-triazolo[1,5-c]pyrimidin-2(3H)-one, reference compound]

IC50 (AII receptor; [2]): 35.7 nM
Compound: CCCCc1nc2ccc(C3(C)CC(C(=O)OCC)=NO3)cc2c(=O)n1Cc1ccc(-c2ccccc2-c2nn[nH]n2)cc1 (centres unmarked) [5-[2-butyl-3,4-dihydro-4-oxo-3-[[2'-(1H-tetrazol-5-yl)[1,1'-biphenyl]-4-yl]methyl]-6-quinazolinyl]-4,5-dihyrdro-5-methyl-3-isoxazolecarboxylic acid ethyl ester]

IC50 (AII receptor; [3]): 550 nM
Compound: CCCCc1nc2ccc(C3(C)NN[C@H]4C(=O)N(C)C(=O)[C@H]43)cc2c(=O)n1Cc1ccc(-c2ccccc2-c2nn[nH]n2)cc1 (relative stereo) [(3aα,6aα)-3-[2-butyl-3,4-dihydro-4-oxo-3-[[2'-(1H-tetrazol-5-yl)[1,1'-biphenyl]-4-yl]methyl]-6-quinazolinyl]-2,3,3a,6a-tetrahydro-3,5-dimethylpyrrolo[3,4-c]pyrazole-4,6-(1H,5H)-dione]

IC50 (AII receptor; [2]): 2.44 nM
Compound: CCc1nc2c(C)cc(C)nc2n1Cc1ccc(-c2ccccc2-c2nnn[nH]2)cc1 [2-ethyl-5,7-dimethyl-3-[[2'-(1H-tetrazol-5-yl)[1,1-biphenyl]-4-yl]methyl]-3H-imidazo[4,5-b]pyridine, reference compound]

IC50 (AII receptor; [2]): 3.14 nM
Compound: CCCCc1nc2ccc(C(O)C3CCCS3(=O)=O)cc2c(=O)n1Cc1ccc(-c2ccccc2-c2nn[nH]n2)cc1 (single isomer, unassigned) [2-butyl-6-[hydroxy(tetrahydro-2-thienyl)methyl]-3-[[2'-(1H-tetrazol-5-yl)[1,1'-biphenyl]-4-yl]methyl]-4(3H)-quinazolinone S,S-dioxide isomer 2]

IC50 (AII receptor; [3]): 14.1 nM
Compound: CCCCc1nc2ccc([C@@H]3C[C@@H]4[C@H](O3)ON3[C@H]4CCC3(C)C)cc2c(=O)n1Cc1ccc(-c2ccccc2-c2nn[nH]n2)cc1 [[2S-(2α,3aα,3bβ,8aα)]-2-butyl-6-(6,6'-dimethyloctahydrofuro[3,2-d]pyrrolo[1,2-d]isoxazol-2-yl)-3-[[2'-(1H-tetrazol-5-yl)[1,1'-biphenyl]-4-yl]methyl]-4(3H)-quinazolinone]

IC50 (AII receptor; [2]): 8.2 nM
Compound: CCCCc1nc2ccc([C@H]3C[C@@H](CO)ON3C)cc2c(=O)n1Cc1ccc(-c2ccccc2-c2nnn[nH]2)cc1 [(3R-cis)-2-butyl-6-[5-(hydroxymethyl)-2-methyl-3-isoxazolidinyl]-3-[[2'-(1H-tetrazol-5-yl)[1,1'-biphenyl-4-yl]methyl]-4(3H)-quinazolinone]

IC50 (AII receptor; [2]): 23.5 nM
Compound: CCCCc1nc2ccc(C3(C(=O)OC)CC4CCCN4O3)cc2c(=O)n1Cc1ccc(-c2ccccc2-c2nnn[nH]2)cc1 (mixture of isomers) [trans-(+/-)-2-[2-butyl-3,4-dihydro-4-oxo-3-[[2'-(1H-tetrazol-5-yl)[1,1'-biphenyl]-4-yl]methyl]-6-quinazolinyl]hexahydropyrrolo[1,2-b]isoxazole-2-carboxylic acid methyl ester monohydro]

IC50 (AII receptor; [2]): 18.6 nM
Compound: CCCCc1nc2ccc([C@@H]3C[C@@H](CO)ON3C)cc2c(=O)n1Cc1ccc(-c2ccccc2-c2nnn[nH]2)cc1 [(3S-trans)-2-butyl-6-[5-(hydroxymethyl)-2-methyl-3-isoxazolidinyl]-3-[[2'-(1H-tetrazol-5-yl)[1,1'-biphenyl]-4-yl]methyl]-4(3H)-quinazolinone]
